Test results reported in PubChem BioAssay AID563 (University of Pittsburgh Molecular Library Screening Center, 2006).
The source made the active and inactive calls. How the calls were made is not given here.

Biological target: Dual specificity protein phosphatase 1 (Homo sapiens) (UniProt P28562)
Experiment: reproducibility of MKP-1 inhibition curves – biochemical, reproducibility testing, probe assessment, dose response (AID 563)
Settings: recombinant MKP-1 phosphatase, fluorescence intensity

Chain of Dual specificity protein phosphatase 1 (Homo sapiens) (P28562 whole entry, looked up): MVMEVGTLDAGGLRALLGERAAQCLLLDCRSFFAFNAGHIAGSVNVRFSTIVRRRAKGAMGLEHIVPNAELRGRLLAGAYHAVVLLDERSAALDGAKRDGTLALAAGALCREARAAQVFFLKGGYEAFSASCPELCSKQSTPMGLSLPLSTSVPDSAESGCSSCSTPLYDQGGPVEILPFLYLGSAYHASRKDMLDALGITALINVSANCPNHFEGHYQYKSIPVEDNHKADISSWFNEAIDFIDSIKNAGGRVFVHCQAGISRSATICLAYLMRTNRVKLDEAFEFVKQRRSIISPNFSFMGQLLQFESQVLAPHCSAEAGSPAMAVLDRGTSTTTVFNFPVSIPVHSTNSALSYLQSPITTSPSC

Structure (SMILES)	IC50
CCCCCNC(=O)c1ccc2c(=O)[nH]c3c(C(=O)NCC4CCCO4)sc(=S)n3c2c1 (stereo not drawn)	37 µM
Cc1ccc(C)n1-c1cccc(C(=O)O)c1	17.1 µM
Cc1nc2c(C(=O)NCCC3=CCCCC3)c[nH]n2c(=O)c1Cl	49.8 µM
CC(C)Sc1nc2sc3c(c2c2nnc(SCC(=O)NCc4ccco4)n12)CCCC3	22.8 µM
CCOC(=O)c1ccc2c(c1)C1C=CCC1C(C(=O)O)N2 (stereo not drawn)	32.8 µM
Cc1ccc(-c2csc(NC(=O)c3ccno3)n2)cc1	49.7 µM
O=C1C(C2=C(O)c3ccccc3C2=O)=Nc2ccccc21	> 50 µM (inactive)
Cc1cccc(N2CCN(C(=O)Cc3c(C(=O)O)[nH]c4ccc(Cl)cc34)CC2)c1C	46.9 µM
